In patent publication US6379714B1, “Pharmaceutical grade botanical drugs” (priority 1995, dated 2002):

What was measured:
[1] = system: C3H Mammary adenocarcinoma 16/C; experiment: Growth of subcutaneous transplants of C3H mammary adenocarcinoma 16/C in mice; format: in vivo, B6C3F1 hybrid female mice; details: 5-Fluorouracil 98 mg/kg, i.p., qd (1, 7, 14, 21)
Description: Anticancer activities of T4GEN and n-T4GEN were studied in animals bearing subcutaneous transplants of C3H Mammary adenocarcinoma 16/C. This tumor is maintained as a lung passed tumor in C3H female mice. In this example, tumors (1×10^6 cells) were transplanted (S.C.) in 18-20 g B6C3F1 hybrid female mice. On the following day, the tumor bearing animals were randomized and separated into different treatment groups (10 mice per group). There were 15 animals in the control group who received only physiological saline during the treatment periods. […] Animals were weighed on days 5, 9 and 14 to assess toxic effects. Tumors were measured on days 21, 28 post transplants and the results are represented as tumor weights using formula [formula]
(I=length of tumor, w=width of tumor expressed in mm).

[2] = Body weight change of tumor bearing mice (toxic effects); format: in vivo, B6C3F1 hybrid female mice; details: 5-Fluorouracil 98 mg/kg, i.p., qd (1, 7, 14, 21)
Description: Anticancer activities of T4GEN and n-T4GEN were studied in animals bearing subcutaneous transplants of C3H Mammary adenocarcinoma 16/C. This tumor is maintained as a lung passed tumor in C3H female mice. In this example, tumors (1×10^6 cells) were transplanted (S.C.) in 18-20 g B6C3F1 hybrid female mice. On the following day, the tumor bearing animals were randomized and separated into different treatment groups (10 mice per group). There were 15 animals in the control group who received only physiological saline during the treatment periods. The treatments (i.p.) were started 48 hours after the transplants and given for a duration of 14 days (daily single injections). Animals were weighed on days 5, 9 and 14 to assess toxic effects. Tumors were measured on days 21, 28 post transplants and the results are represented as tumor weights using formula [formula]

## O=c1[nH]cc(F)c(=O)[nH]1 [5-Fluorouracil]
[1]
  Tumor Free Animals (day 93): 0/6
  Tumor Wts (day 21): 0.00
[1]; day 21
  Tumor Weight Inhibition %: 100%
[2]
  ΔWts (g) (day 14): +1.77 g
